# Data taken from PubChem BioAssay AID1259407 (Chemical Carcinogenesis Research Information System (CCRIS), 2018).
# Calls of active or inactive are those of the source. How the calls were made is not given here.
# Test system: CCRIS mutagenicity, Ames/micronucleus/aberration tests
# Assay: CCRIS mutagenicity studies
# [1] = Test System: AMES SALMONELLA TYPHIMURIUM, Strain/Indicator: TA1535, Metabolic Activation: NONE, Method: STANDARD PLATE
# [2] = Test System: MOUSE LYMPHOMA, Strain/Indicator: L5178Y (TK+/TK-), Metabolic Activation: NONE, Method: SUSPENSION/PLATE
# [3] = Test System: MOUSE LYMPHOMA, Strain/Indicator: L5178Y (TK+/TK-), Metabolic Activation: RAT, LIVER, S-9, AROCLOR 1254, Method: SUSPENSION/PLATE
# [4] = Test System: AMES SALMONELLA TYPHIMURIUM, Strain/Indicator: TA98, Metabolic Activation: NONE, Method: STANDARD PLATE
# [5] = Test System: AMES SALMONELLA TYPHIMURIUM, Strain/Indicator: TA98, Metabolic Activation: RAT, LIVER, S-9, AROCLOR 1254, Method: STANDARD PLATE
# [6] = Test System: AMES SALMONELLA TYPHIMURIUM, Strain/Indicator: TA100, Metabolic Activation: NONE, Method: STANDARD PLATE
# [7] = Test System: AMES SALMONELLA TYPHIMURIUM, Strain/Indicator: TA100, Metabolic Activation: RAT, LIVER, S-9, AROCLOR 1254, Method: STANDARD PLATE
# [8] = Test System: AMES SALMONELLA TYPHIMURIUM, Strain/Indicator: TA1537, Metabolic Activation: NONE, Method: STANDARD PLATE
# [9] = Test System: AMES SALMONELLA TYPHIMURIUM, Strain/Indicator: TA1538, Metabolic Activation: NONE, Method: STANDARD PLATE
smiles,measurement,setting,value
O=[Se](O)O,mutagenic call,"End Point: IN VIVO CHROMOSOMAL ABERRATIONS, Test System: TESTICULAR CELLS, Species: MOUSE, Strain/Sex: KUNMING/MALE, Route: DIET",selenite reduced number of chromosomal aberrations induced by mmc
same,mutagenic call,"End Point: IN VIVO MICRONUCLEUS, Test System: BONE MARROW CELLS, POLYCHROMATIC ERYTHROCYTES, Species: MOUSE, Strain/Sex: KUNMING/FEMALE, Route: DIET",selenite reduced micronuclei induced by cyclophosphamide
same,mutagenic call,[1],active; positive
same,mutagenic call,"Test System: CHINESE HAMSTER OVARY, Strain/Indicator: CHO-K1-BH4 (HGPRT)/6-THIOGUANINE, Metabolic Activation: NONE",active; positive
same,mutagenic call,"Test System: E. COLI, Strain/Indicator: WP2 UVRA, Metabolic Activation: NONE, Method: SPOT TEST",inactive; negative
same,mutagenic call,[2],active; positive. reevaluation of results: positive
same,mutagenic call,[3],active; positive. reevaluation of results: positive
same,mutagenic call,"Test System: UDS HUMAN FIBROBLASTS, Strain/Indicator: THY INCORP (NON-S-PHASE), Metabolic Activation: MOUSE, LIVER, S-9, Method: AUTORADIOGRAPHY",active; positive
c1ccc2sc(SSc3nc4ccccc4s3)nc2c1,mutagenic call,"Test System: AMES SALMONELLA TYPHIMURIUM, Strain/Indicator: TA97, Metabolic Activation: HAMSTER, LIVER, S-9, AROCLOR 1254 (10%), Method: PREINCUBATION",inactive; negative
same,mutagenic call,"Test System: AMES SALMONELLA TYPHIMURIUM, Strain/Indicator: TA97, Metabolic Activation: NONE, Method: PREINCUBATION",active; positive
same,mutagenic call,"Test System: AMES SALMONELLA TYPHIMURIUM, Strain/Indicator: TA97, Metabolic Activation: RAT, LIVER, S-9, AROCLOR 1254 (10%), Method: PREINCUBATION",inactive; negative
same,mutagenic call,"Test System: AMES SALMONELLA TYPHIMURIUM, Strain/Indicator: TA98, Metabolic Activation: HAMSTER, LIVER, S-9, AROCLOR 1254 (10 OR 30%), Method: PREINCUBATION",inactive; negative
same,mutagenic call,"Test System: AMES SALMONELLA TYPHIMURIUM, Strain/Indicator: TA98, Metabolic Activation: RAT, LIVER, S-9, AROCLOR 1254 (10 OR 30%), Method: PREINCUBATION",inactive; negative
same,mutagenic call,"Test System: AMES SALMONELLA TYPHIMURIUM, Strain/Indicator: TA100, Metabolic Activation: HAMSTER, LIVER, S-9, AROCLOR 1254 (10 OR 30%), Method: PREINCUBATION",inactive; negative
same,mutagenic call,"Test System: AMES SALMONELLA TYPHIMURIUM, Strain/Indicator: TA100, Metabolic Activation: NONE, Method: PREINCUBATION",inactive; negative
same,mutagenic call,"Test System: AMES SALMONELLA TYPHIMURIUM, Strain/Indicator: TA100, Metabolic Activation: RAT, LIVER, S-9, AROCLOR 1254 (10 OR 30%), Method: PREINCUBATION",active; positive
same,mutagenic call,"Test System: AMES SALMONELLA TYPHIMURIUM, Strain/Indicator: TA1535, Metabolic Activation: HAMSTER, LIVER, S-9, AROCLOR 1254 (10%), Method: PREINCUBATION",inactive; negative
same,mutagenic call,"Test System: AMES SALMONELLA TYPHIMURIUM, Strain/Indicator: TA1535, Metabolic Activation: NONE, Method: PREINCUBATION",inactive; negative
same,mutagenic call,"Test System: AMES SALMONELLA TYPHIMURIUM, Strain/Indicator: TA1535, Metabolic Activation: RAT, LIVER, S-9, AROCLOR 1254 (10%), Method: PREINCUBATION",inactive; negative
O=S1(=O)OC(c2cc(Br)c(O)c(Br)c2)(c2cc(Br)c(O)c(Br)c2)c2c(Br)c(Br)c(Br)c(Br)c21,mutagenic call,[4],inactive; negative
same,mutagenic call,[5],inactive; negative
same,mutagenic call,[6],inactive; negative
same,mutagenic call,[7],inactive; negative
same,mutagenic call,[1],inactive; negative
same,mutagenic call,"Test System: AMES SALMONELLA TYPHIMURIUM, Strain/Indicator: TA1535, Metabolic Activation: RAT, LIVER, S-9, AROCLOR 1254, Method: STANDARD PLATE",inactive; negative
same,mutagenic call,[8],inactive; negative
same,mutagenic call,"Test System: AMES SALMONELLA TYPHIMURIUM, Strain/Indicator: TA1537, Metabolic Activation: RAT, LIVER, S-9, AROCLOR 1254, Method: STANDARD PLATE",inactive; negative
same,mutagenic call,[9],inactive; negative
same,mutagenic call,"Test System: AMES SALMONELLA TYPHIMURIUM, Strain/Indicator: TA1538, Metabolic Activation: RAT, LIVER, S-9, AROCLOR 1254, Method: STANDARD PLATE",inactive; negative
same,mutagenic call,[2],inactive; negative
same,mutagenic call,[3],inactive; negative
O=C(c1ccc(O)cc1)c1ccc(O)cc1,mutagenic call,"End Point: In vitro micronucleus, Test System: HepG2 cells, Metabolic Activation: None",inactive; negative
CN(C)/C=N/c1nnc(/C=C/c2ccc([N+](=O)[O-])o2)o1,mutagenic call,"Test System: AMES SALMONELLA TYPHIMURIUM, Strain/Indicator: TA100, Metabolic Activation: RAT, LIVER, S-9, KC500 OR PHENOBARBITAL, Method: LIQUID SUSPENSION",active; positive
CCCCCCCCCCCCCCCCCCCCCCO,mutagenic call,[4],inactive; negative
same,mutagenic call,"Test System: AMES SALMONELLA TYPHIMURIUM, Strain/Indicator: TA98, Metabolic Activation: RAT LIVER S-9, Method: STANDARD PLATE",inactive; negative
same,mutagenic call,[6],inactive; negative
same,mutagenic call,"Test System: AMES SALMONELLA TYPHIMURIUM, Strain/Indicator: TA100, Metabolic Activation: RAT LIVER S-9, Method: STANDARD PLATE",inactive; negative
same,mutagenic call,[1],inactive; negative
same,mutagenic call,"Test System: AMES SALMONELLA TYPHIMURIUM, Strain/Indicator: TA1535, Metabolic Activation: RAT LIVER S-9, Method: STANDARD PLATE",inactive; negative
same,mutagenic call,[8],inactive; negative
same,mutagenic call,"Test System: AMES SALMONELLA TYPHIMURIUM, Strain/Indicator: TA1537, Metabolic Activation: RAT LIVER S-9, Method: STANDARD PLATE",inactive; negative
same,mutagenic call,[9],inactive; negative
same,mutagenic call,"Test System: AMES SALMONELLA TYPHIMURIUM, Strain/Indicator: TA1538, Metabolic Activation: RAT LIVER S-9, Method: STANDARD PLATE",inactive; negative
same,mutagenic call,"Test System: CHINESE HAMSTER V-79, Strain/Indicator: V-79 (HGPRT)/THIOGUANINE, Metabolic Activation: NONE, Method: STANDARD PLATE",inactive; negative
same,mutagenic call,"Test System: CHINESE HAMSTER V-79, Strain/Indicator: V-79 (HGPRT)/THIOGUANINE, Metabolic Activation: RAT LIVER S-9, Method: STANDARD PLATE",inactive; negative
CC(C)=C[C@@H]1[C@@H](C(=O)OCc2coc(Cc3ccccc3)c2)C1(C)C,mutagenic call,[4],inactive; negative
same,mutagenic call,[5],inactive; negative
same,mutagenic call,[6],inactive; negative
same,mutagenic call,[7],inactive; negative
same,mutagenic call,"Test System: CHINESE HAMSTER V-79, Strain/Indicator: V-79/6-THIOGUANINE, Metabolic Activation: NONE, Method: STANDARD PLATE",inactive; negative
same,mutagenic call,"Test System: CHINESE HAMSTER V-79, Strain/Indicator: V-79/6-THIOGUANINE, Metabolic Activation: RAT HEPATOCYTES, Method: STANDARD PLATE",inactive; negative
same,mutagenic call,"Test System: CHINESE HAMSTER V-79, Strain/Indicator: V-79/OUABAIN, Metabolic Activation: NONE, Method: STANDARD PLATE",inactive; negative
same,mutagenic call,"Test System: CHINESE HAMSTER V-79, Strain/Indicator: V-79/OUABAIN, Metabolic Activation: RAT HEPATOCYTES, Method: STANDARD PLATE",inactive; negative
Cc1cnc2c(n1)c(C)cc1c2nc(N)n1C,mutagenic call,[5],active; positive
